Publication PMC6877482, “Inhibition of AMD-Like Pathology With a Neurotrophic Compound in Aged Rats and 3xTg-AD Mice” (Frontiers in Aging Neuroscience, 2019)

Tests used:
[1] = method not given, block ends with ref Kazim et al., 2014, cited from earlier work
Protocol: P021 is quite stable in artificial gastric juice (~90% for 30 min) and in artificial intestinal juice (>95% for 120 min).

RPE of aged Fisher rats = assay: RPE and BM pathology (H & E, auto-fluorescence deposits) in aged rats; format: in vivo, rat; details: female Fisher rats ~19-21 months, 500 nmoles/kg/day by gavage for 3 months
Protocol: (§1) Female aged (19–21 months) Fisher rats (n = 7) were given P021 per os by gavage (10 ml/kg body weight) once a day for 88 days. […] To be able to deliver the same constant dose to each animal, we chose gavage. Furthermore, the administration of P021 by gavage is more economical than by drinking water. As controls, the second group of aged (19–21 months) female rats (n = 7) and a group of young adult female rats (2–3 months, n = 7) were treated identically, but with normal saline (vehicle) only (Figure 1A). Administration of vehicle and test compound was done at 7–9 AM daily and blindly to the investigators who collected, processed, and analyzed the tissue.
(§2) The animals were anesthetized by using an overdose of avertin and then were transcardially perfused by using 0.1 M phosphate-buffered saline (PBS). […]
Every 25th retinal section was deparaffinized and subjected to hematoxylin and eosin (H & E) staining to evaluate the morphology. […] Because there is no significant difference between the 1/5th to the 1/3rd of the retina from the optic nerve head and the most peripheral part, we chose the 1/5th position of the retina from the optic nerve to the most peripheral part of the retina as the “central,” and the most peripheral part of the retina as “peripheral.” Rows of the outer nuclear layer (ONL) and the inner nuclear layer (INL) of the retina in each group (every 25th section, 3–5 sections per rat or mouse, n = 5–7 rats per group; n = 5–6 mice per group) were manually counted in three columns per image by using a 40× or, where necessary, a higher magnification objective. The thicknesses of the ONL and INL of the central and peripheral retina in each group (every 25th section from the optic nerve head, 2–3 sections per rat or mouse, n = 3–7 rats per group; n = 5–6 mice per group) were measured and quantified by using the ImageJ/NIH image analysis system. […]

VEGF = VEGF immunofluorescence in retina and optic nerve of aged 3xTg-AD mice; format: in vivo, mouse; details: 60 nmoles P021/g feed from 3 to 21 months of age, qualitative, 2-3 animals/group
Excerpt: (§3) At approximately 3 months of age, the female wild type and 3xTg-AD mice were divided into five groups (n = 6–7 mice per group; Figure 3A): (1) wild type mice, age 3 months, without treatment (WT-3 m); (2) 3xTg-AD mice, age 3 months, without treatment (3xTg-3 m); (3) wild type mice, age 3 months, treated with vehicle feed without P021 until the age of 21 months (WT-21 m/Veh); (4) 3xTg-AD-mice, age 3 months, treated with vehicle feed without P021 until the age of 21 months (3xTg-21 m/Veh); and (5) 3xTg-AD-mice, age 3 months, treated with 60 nmol P021/g feed till the age of 21 months (3xTg-21 m/P021). The first two groups, WT-3 m and 3xTg-AD-3 m, were the starting points and were employed as controls to study age-associated AMD-like changes in WT-21 m and 3xTg-AD-21 m, respectively. […] Food consumption and body weight were recorded every 2 weeks and every month, respectively. […]
(§4) Paraffin sections were deparaffinized, rehydrated, and subjected to antigen retrieval by boiling for 20 min in 10 mM sodium citrate solution (pH 6.0). […] The area to be analyzed was selected, converted to grayscale, and thresholded using Yen’s arithmetic, and the area percentage of positive staining was measured for each section by using the NIH ImageJ software package. The staining area was quantified from two to three sections of each eye and averaged (n = 5–7 animals per group).

GFAP [2] = assay: Astrogliosis, GFAP immunofluorescence in retina of 3xTg-AD mice; format: in vivo, mouse; details: female 3xTg-AD mice, 60 nmoles P021/g feed from 3 to 21 months of age
Excerpt: (§5) At approximately 3 months of age, the female wild type and 3xTg-AD mice were divided into five groups (n = 6–7 mice per group; Figure 3A): (1) wild type mice, age 3 months, without treatment (WT-3 m); (2) 3xTg-AD mice, age 3 months, without treatment (3xTg-3 m); (3) wild type mice, age 3 months, treated with vehicle feed without P021 until the age of 21 months (WT-21 m/Veh); (4) 3xTg-AD-mice, age 3 months, treated with vehicle feed without P021 until the age of 21 months (3xTg-21 m/Veh); and (5) 3xTg-AD-mice, age 3 months, treated with 60 nmol P021/g feed till the age of 21 months (3xTg-21 m/P021). The first two groups, WT-3 m and 3xTg-AD-3 m, were the starting points and were employed as controls to study age-associated AMD-like changes in WT-21 m and 3xTg-AD-21 m, respectively. We included WT-21 m/Veh as another reference group to enable a comparison of AMD-like changes in 3xTg-21 m/Veh with age-matched WT animals. […] P021 was formulated in the feed by Research Diets (New Brunswick, NJ, USA). Food consumption and body weight were recorded every 2 weeks and every month, respectively. The average mouse food consumption was ~2.7 g feed/day. The analysis of the animals was carried out blind to the treatment.
as §2, §4

Iba-1 [3] = assay: Microgliosis, Iba-1 immunofluorescence in retina of 3xTg-AD mice; format: in vivo, mouse; details: female 3xTg-AD mice, 60 nmoles P021/g feed from 3 to 21 months of age
Excerpt: as §3, §4

Iba-1 [4] = assay: Microgliosis, Iba-1 immunofluorescence in retina of aged rats; format: in vivo, rat; details: female Fisher rats ~19-21 months, 500 nmoles/kg/day by gavage for 3 months
Protocol: as §1, §2, §4

retina of 3xTg-AD mice = assay: Retinal morphology (H & E, rows and thickness of ONL and INL) in aged 3xTg-AD mice; format: in vivo, mouse; details: female 3xTg-AD mice, 60 nmoles P021/g feed from 3 to 21 months of age
Excerpt: as §5
(§6) The animals were anesthetized by using an overdose of avertin and then were transcardially perfused by using 0.1 M phosphate-buffered saline (PBS). Eyeballs were dissected out from the carcasses, immersion-fixed for 24 h in 4% paraformaldehyde at 4°C, and then transferred to 70% alcohol for storage; in the case of mice, the eyeballs were prefixed by injecting 4% paraformaldehyde, followed by removal from the carcasses and immersion fixation as above. After the cornea and lens of the left eyes were removed, the remaining eye cup was embedded in paraffin, with the orientation parallel to the optic nerve in longitudinal position. In all cases, 5-μm serial sections were cut by using a rotary microtome and were mounted on Superfrost Plus slides. Processing and analysis of the retinal tissue were conducted blind.
(§7) Every 25th retinal section was deparaffinized and subjected to hematoxylin and eosin (H & E) staining to evaluate the morphology. The H & E staining images were captured with a light microscope using 2×, 40×, and 100× objective lenses. Because there is no significant difference between the 1/5th to the 1/3rd of the retina from the optic nerve head and the most peripheral part, we chose the 1/5th position of the retina from the optic nerve to the most peripheral part of the retina as the “central,” and the most peripheral part of the retina as “peripheral.” Rows of the outer nuclear layer (ONL) and the inner nuclear layer (INL) of the retina in each group (every 25th section, 3–5 sections per rat or mouse, n = 5–7 rats per group; n = 5–6 mice per group) were manually counted in three columns per image by using a 40× or, where necessary, a higher magnification objective. The thicknesses of the ONL and INL of the central and peripheral retina in each group (every 25th section from the optic nerve head, 2–3 sections per rat or mouse, n = 3–7 rats per group; n = 5–6 mice per group) were measured and quantified by using the ImageJ/NIH image analysis system. Processing and analysis of the retinal tissue and the data were conducted blind to the genotypes and the treatment of the animals.

[5] = test system: RPE and BM of 3xTg-AD mice; assay: RPE and BM pathology (H & E, auto-fluorescence deposits) in aged 3xTg-AD mice; format: in vivo, mouse; details: female 3xTg-AD mice, 60 nmoles P021/g feed from 3 to 21 months of age
Excerpt: as §3
Every 25th retinal section was deparaffinized and subjected to hematoxylin and eosin (H & E) staining to evaluate the morphology. […] The thicknesses of the ONL and INL of the central and peripheral retina in each group (every 25th section from the optic nerve head, 2–3 sections per rat or mouse, n = 3–7 rats per group; n = 5–6 mice per group) were measured and quantified by using the ImageJ/NIH image analysis system. […]

GFAP [6] = assay: Astrogliosis, GFAP immunofluorescence in retina of aged rats; format: in vivo, rat; details: female Fisher rats ~19-21 months, 500 nmoles/kg/day by gavage for 3 months; n = 6-7 rats; vs 22-24 m/Veh
Protocol: as §1, §2, §4

[7] = test system: retina of aged Fisher rats; assay: Retinal morphology (H & E, rows and thickness of ONL and INL) in aged rats; format: in vivo, rat; details: female Fisher rats ~19-21 months, 500 nmoles/kg/day by gavage for 3 months
Protocol: as §1, §6, §7

[8] = commercial service (APREDICA, Watertown, MA, USA); ref Kazim et al., 2014; cited from earlier work
aged rats and mice = details: chronic oral treatment in aged rats and mice, earlier study; ref Kazim et al., 2014; cited from earlier work
Excerpt: At as early as 12 months of age, OXYS rats and Wistar rats are known to show AMD-like pathology, such as BM thickening and lipofuscin accumulation (Neroev et al., [2008]; Markovets et al., [2011]). […] Here, to assess the AMD-like retinal pathology induced by aging and to study the effect of P021 on the p ...

[9] = test system: total tau, phosphorylated tau, Aβ/APP; assay: Tau and Aβ pathologies, immunofluorescence in retina of aged rats; format: in vivo, rat; details: aged Fisher rats, 500 nmoles/kg/day by gavage for 3 months; qualitative, not quantified, 2-3 animals/group
Protocol: as §1, §2, §4

[10] = test system: total tau, phosphorylated tau, Aβ/APP; assay: Tau and Aβ pathologies, immunofluorescence in retina of aged 3xTg-AD mice; format: in vivo, mouse; details: 60 nmoles P021/g feed from 3 to 21 months of age, qualitative, not quantified, 2-3 animals/group
Excerpt: as §3, §4

Substance: Ac-DGGL^AG-NH2 [P021]
- stability in artificial gastric juice ([1]; 30 min): ~ 90%
- stability in artificial intestinal juice ([1]; 120 min): > 95%
- arrangement of apical microvilli (AM) in RPE (RPE of aged Fisher rats; H & E): showed improvement in the arrangement of AM
- vacuolation and atrophy of RPE (RPE of aged Fisher rats; H & E): no apparent abnormalities were observed
- lipofuscin granules and deposition number between RPE and Cho (RPE of aged Fisher rats; auto-fluorescence λex = 543, n = 7 rats, vs 22-24 m/Veh): markedly decreased
- VEGF staining in the optic nerve (VEGF): the size of the staining patch was decreased
- localization of VEGF-positive spots in the retina (VEGF): limited mainly to the GCL to the IPL
- distribution of GFAP-positive staining in the retina (GFAP [2]): limited to the NFL and GCL
- area percentage of GFAP in the peripheral retina, changes between groups (GFAP [2]; n = 3-6 mice, similar trend, large standard error): did not reach statistical significance
- area percentage of GFAP from the NFL to the ONL in the central retina (GFAP [2]; n = 5-6 mice, vs 3xTg-21 m/Veh): reduced by P021 treatment to the levels in WT-3 m/Veh and 3xTg-3 m/Veh mice
- distribution of Iba-1-positive staining in the central retina (Iba-1 [3]): only observed in the GCL
- area percentage of Iba-1 immunostaining in the peripheral retina (Iba-1 [3]; NFL to ONL, n = 3-6 mice, vs 3xTg-21 m/Veh): decreased in 3xTg-21 m/P021 mice to the levels in WT-3 m/Veh and 3xTg-3 m/Veh mice
- localization of Iba-1-positive microglial cells in the retina (Iba-1 [4]; especially central retina): no staining was found from the ONL to the OS
- relative Iba-1 immunostaining from the NFL to the OS, central and peripheral retinas (Iba-1 [4]; n = 6-7 rats, vs 22-24 m/Veh): dramatically reduced
- extension of ONL nuclei across the OPL or into the INL, central retina (retina of 3xTg-AD mice; H & E): this pathology was prevented
- prevention of changes in rows and thickness of INL in the peripheral retina (retina of 3xTg-AD mice; vs 3xTg-21 m/Veh, H & E): did not reach significance
- rows and thickness of INL in the central retina (retina of 3xTg-AD mice; vs 3xTg-21 m/Veh, H & E): prevented these changes
- rows and thickness of ONL in the central retina (retina of 3xTg-AD mice; vs 3xTg-21 m/Veh, H & E): these changes in the central retina were prevented
- rows and thickness of ONL in the peripheral retina (retina of 3xTg-AD mice; vs 3xTg-21 m/Veh, H & E): showed a trend to rescue these changes
- rescue of INL thickness in the central retina (retina of 3xTg-AD mice; vs 3xTg-21 m/Veh, obvious trend): did not reach statistical significance
- thickening of the BM ([5]; H & E): no BM thickening
- number of deposits between the RPE and Cho ([5]; auto-fluorescence λex = 543, n = 5 mice, vs 3xTg-21 m/Veh): significantly reduced
- GFAP staining in central and peripheral retinas (GFAP [6]): reduced very much
- outer retinal folds and rosette-like structures in the central retina [7]: No abnormal structure like this was observed
- rows and thickness of INL in the central retina [7]: no detectable effect
- rows and thickness of ONL, central and peripheral retina ([7]; vs 22-24 m/Veh): prevented these pathological changes more effectively in the central retina
- rows of INL in the peripheral retina ([7]; vs 22-24 m/Veh): showed a clear trend to rescue the number of rows
- BBB crossing [8]: a sufficient amount of P021 crossed the BBB
- general physical state / side effects (aged rats and mice): did not observe any worsening in general physical state
- tau and Aβ pathologies in the retina (R134d, PHF-1, AT8, 4G8, Aβ immunofluorescence) [9]: prevented the trend in the increase in tau and Aβ pathologies
- tau and Aβ pathologies in the retina (R134d, PHF-1, AT8, 4G8, Aβ immunofluorescence) [10]: prevented the trend in the increase in tau and Aβ pathologies
